Measured values: patent US20230233537A1, “Compositions and Kits of Parts Comprising N,N-Dimethyltryptamine and Harmine and Their Use in Therapy” (University of Zürich, priority 2020, published 2023)

How the values were obtained:
[1] = local tolerability on nasal or oral mucosa (burning sensation); settings: for burning sensation on nasal application: intranasal
[2] = combined intranasal/buccal study (parenteral pharmahuasca): DMT and harmine concentrations in plasma; settings: for variation of peak plasma concentrations (cmax), extensive vs. poor metabolizers, factor: 150 mg buccal harmine HCl, up to 50 mg incremental intranasal DMT fumarate; for bioavailability (area under the curve; AUC) compared to oral administration: DMT fumarate intranasal, harmine HCl buccal
[3] = target: T1, monoamine oxidase A (MAO-A) (Homo sapiens, UniProt P21397); settings: cited from earlier work
T1 sequence (P21397 1-527): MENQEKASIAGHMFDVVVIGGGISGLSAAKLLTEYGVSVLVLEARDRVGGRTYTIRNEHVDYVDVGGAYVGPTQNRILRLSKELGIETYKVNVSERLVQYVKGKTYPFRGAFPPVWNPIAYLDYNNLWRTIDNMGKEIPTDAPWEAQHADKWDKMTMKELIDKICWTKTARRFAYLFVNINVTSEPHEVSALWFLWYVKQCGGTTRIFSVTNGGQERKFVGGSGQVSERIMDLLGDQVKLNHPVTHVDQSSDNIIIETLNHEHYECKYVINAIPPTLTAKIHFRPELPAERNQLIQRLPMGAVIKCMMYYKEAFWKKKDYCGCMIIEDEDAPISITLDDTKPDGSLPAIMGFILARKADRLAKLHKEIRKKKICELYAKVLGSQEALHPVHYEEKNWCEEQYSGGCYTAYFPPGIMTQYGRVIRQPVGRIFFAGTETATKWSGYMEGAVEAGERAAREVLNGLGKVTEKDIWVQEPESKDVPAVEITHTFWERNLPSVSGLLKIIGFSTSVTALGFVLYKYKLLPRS

[4] = target: T2, monoamine oxidase B (MAO-B) (Homo sapiens, UniProt P27338); settings: cited from earlier work
T2 sequence (P27338 1-520): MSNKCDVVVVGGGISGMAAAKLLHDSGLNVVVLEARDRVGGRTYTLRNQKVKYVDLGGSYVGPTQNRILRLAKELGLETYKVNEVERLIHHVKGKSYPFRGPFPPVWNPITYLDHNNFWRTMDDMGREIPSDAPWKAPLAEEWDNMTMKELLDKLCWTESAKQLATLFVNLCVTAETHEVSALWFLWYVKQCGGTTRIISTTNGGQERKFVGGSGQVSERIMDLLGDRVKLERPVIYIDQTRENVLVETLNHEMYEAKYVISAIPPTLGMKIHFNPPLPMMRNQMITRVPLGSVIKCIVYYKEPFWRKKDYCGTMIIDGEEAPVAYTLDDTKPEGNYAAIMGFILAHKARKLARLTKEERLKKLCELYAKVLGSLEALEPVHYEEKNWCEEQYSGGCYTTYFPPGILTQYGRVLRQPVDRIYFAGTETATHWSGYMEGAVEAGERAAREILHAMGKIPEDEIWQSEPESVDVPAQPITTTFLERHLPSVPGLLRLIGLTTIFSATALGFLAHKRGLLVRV

[5] = target: hepatic enzyme CYP2D6 (Homo sapiens, UniProt P10635); settings: cited from earlier work
[6] = aqueous solubility of DMT and harmine forms; settings: for solubility: water, 25 °C
[7] = peroral pharmahuasca study: DMT and harmine concentrations in plasma; settings: male, human, oral
[8] = buccal / transmucosal absorption of DMT forms; settings: in vivo

hepatic enzyme CYP2D6, sequence (P10635 whole entry): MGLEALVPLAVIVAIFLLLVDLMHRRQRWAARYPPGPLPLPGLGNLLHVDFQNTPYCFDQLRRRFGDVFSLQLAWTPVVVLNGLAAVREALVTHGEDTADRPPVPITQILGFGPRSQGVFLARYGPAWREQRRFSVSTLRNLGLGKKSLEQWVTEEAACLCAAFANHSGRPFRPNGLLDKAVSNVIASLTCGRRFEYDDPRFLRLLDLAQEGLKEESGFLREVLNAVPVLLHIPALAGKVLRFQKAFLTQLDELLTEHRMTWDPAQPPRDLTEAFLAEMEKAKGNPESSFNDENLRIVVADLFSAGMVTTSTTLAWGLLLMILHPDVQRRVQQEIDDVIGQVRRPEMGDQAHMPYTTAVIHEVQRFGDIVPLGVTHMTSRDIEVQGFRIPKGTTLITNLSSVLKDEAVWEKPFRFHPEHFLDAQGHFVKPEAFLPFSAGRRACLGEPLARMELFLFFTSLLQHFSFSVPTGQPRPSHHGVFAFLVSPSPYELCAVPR

CN(C)CCc1c[nH]c2ccccc12 [DMT, N,N-Dimethyltryptamine]
burning sensation when administered buccally ([1]; buccal, basic corrosion of the oral mucosa): burning sensation | variation of peak plasma concentrations (cmax), extensive vs. poor metabolizers, factor [2]: ~2.3

COc1ccc2c(c1)[nH]c1c(C)nccc12 [harmine, 7-Methoxy-1-methyl-9H-pyrido[3,4-b]indol]
inhibition of MAO-A [3]: reversibly inhibits | inhibition of MAO-B [4]: does not inhibit | degradation by CYP2D6 [5]: mainly degraded | solubility (in words) [6]: very low | Tmax [7]: 1 to 4.5 h | variation of peak plasma concentrations (cmax), extensive vs. poor metabolizers, factor [2]: ~3.2

CC(=O)O.COc1ccc2c(c1)[nH]c1c(C)nccc12 [harmine acetate]
solubility [6]: ≤ 35 mg/mL | burning sensation on nasal application [1]: intense burning sensation

COc1ccc2c(c1)[nH]c1c(C)nccc12.O=S(=O)(O)O [harmine sulfate]
solubility [6]: ≤ 35 mg/mL | burning sensation on nasal application [1]: intense burning sensation

COc1ccc2c(c1)[nH]c1c(C)nccc12.O=C(O)/C=C/C(=O)O [harmine fumarate]
solubility [6]: ≤ 35 mg/mL | burning sensation on nasal application [1]: intense burning sensation

COc1ccc2c(c1)[nH]c1c(C)nccc12.Cl [harmine HCl, Harmine hydrochloride]
solubility [6]: ≤ 35 mg/mL | burning sensation on nasal application [1]: intense burning sensation | bioavailability (area under the curve; AUC) compared to oral administration [2]: substantially higher

COc1ccc2c(c1)[nH]c1c(C)nccc12.O=C(O)CC(O)(CC(=O)O)C(=O)O [harmine citrate]
solubility [6]: ≤ 35 mg/mL | burning sensation on nasal application [1]: intense burning sensation

CN(C)CCc1c[nH]c2ccccc12.O=C(O)/C=C/C(=O)O [DMT fumarate, N,N-dimethyltryptamine fumarate]
solubility (in words) [6]: high | solubility [6]: > 35 mg/mL | transmucosal absorption [8]: efficient | bioavailability (area under the curve; AUC) compared to oral administration [2]: substantially higher
